Experimental data: US7048907B2, “Synthesis, compositions and methods for the measurement of the concentration of stable-isotope labeled compounds in life forms and life form excretory products” (BioPhysics Assay Laboratory, Inc., priority 2001, dated 2006)
Read-outs that look alike come from different tables or passages of the source. One block for each compound: values may come before it.

Legend:
[1] = Assay of chelate on carboxymethyl (CM) Sephadex column (chelate formation, charge); type: physicochemical; settings: for % of total: DOTA chelates; for umol Gd: atomic absorption
Procedure: Preparation of carboxymethyl sephadex column. To two 10 ml plastic pipets cut off at the 3 ml mark and plugged with glass wool at the bottom add enough slurry to form a 2 ml volume of the CM sephadex. Wash the packed resin with 6 ml of 1 M Tris buffer pH 7.5, and 6 ml of 0.01M Tris buffer pH 7.5. […] Collect the eluants of fractions as follows. Fraction 1.3 ml of 0.01 M Tris buffer pH 7.5 and allow to drain into column. Fraction 2.1 ml of sample (gadolinium-DTPA or gadolinium chloride) and allow to drain into column. Apply 3 ml of 0.01 M Tris buffer pH 7.5 and allow to drain into column. Fraction 3.3 ml of 0.01M Tris buffer pH 7.5 and allow to drain into column. Dry all fractions at 70° C. for 76 hours, dissolve in 1 ml of 1 mM HCl and assay by atomic absorption.
(§1) Preparation of carboxymethyl Sephadex column. To two 10 ml plastic pipets which had been cut off at the 3 ml mark and plugged with glass wool at the bottom, enough slurry was added to form a 2 ml volume of the CM Sephadex. The packed resin was wash with 6 ml of 1 M Tris buffer pH 7.5, and 6 ml of 0.01M Tris buffer pH 7.5. […] Fractions were applied as follows. Fraction 1. Three ml of 0.01 M Tris buffer pH 7.5 and allow to drain into column. Fraction 2. One ml of sample (samarium-DTPA or samarium chloride) and allow to drain into column. Apply 3 ml of 0.01 M Tris buffer pH 7.5 and allow to drain into column. Fraction 3. Three ml of 0.01M Tris buffer pH 7.5 and allow to drain into column. Collect the eluant of fractions 1 through 3. Fraction 4. Column and contents.
as §1, with “were” for “had been”, “washed” for “wash”, “(lanthanum-DTPA” for “(samarium-DTPA”, “lanthanum” for “samarium”
as §1, with “were” for “had been”, “washed” for “wash”, “(Europium-DTPA” for “(samarium-DTPA”, “Europium” for “samarium”
Preparation of carboxymethyl sephadex column. To a 10 ml plastic pipet cut off at the 3 ml mark and plugged with glass wool at the bottom, add enough slurry to form a 2 ml volume of the CM sephadex. Wash the packed resin with 6 ml of 1 M Tris buffer pH 7.5, and 6 ml of 0.01M Tris buffer pH 7.5. […] Apply fractions as follows. Fraction 1. One ml of sample A and allow to drain into column.

[2] = demonstrated by properties of the marketed pharmaceutical product; cited from earlier work
[3] = in vivo; cited from earlier work
[4] = male, New Zealand White, rabbit, in vivo
Procedure: One New Zealand White male rabbit (m=2 kg) was sedated with intramuscular ketanine (35 mg/kg) and xylazine (5 mg/kg). Both the right and left ear veins were catheterized. One line was used to inject Iohexol (Omnipaque®, Nycomed, Inc., Princeton, N.J.). The injected dose (ID) was 90 mg of iodine. […] For each blood sample, 100 μl of serum was placed in a clean sample vial. A metallic monitor was than added to each vial to account for potential neutron flux density variations during neutron activation analysis. Neutron activation was performed in a 2 megawatt reactor for 1 min and samples were counted within 30 minutes following activation. Counts were converted into disintegrations per minute and the measured iodine concentration for each sample was plotted as a function of time of sample withdrawal. The data was fit to a two compartment exponential model using the equation: Plasma concentration=Ae^−(at)+Be^−(bt). […] The GFR (ml/kg/min) was than calculated as follows: GFR=(ID/AUC)/m, where: ID=initial dose of iohexol, AUC=(A/a+B/b), and m=minutes.

[5] = Fraction 1: 1 ml sample diluted 1:10 then 3 ml 0.01M Tris pH 7.5 (eluate)
[6] = Fraction 2: further 3 ml 0.01M Tris pH 7.5

- % eluted from the CM-Sephadex column [1]: 100%
- % of total [1, 5]: 100 % of total
- % of total [1, 6]: 0 % of total
- umol Gd [1, 5]: 0.1 µmol
- umol Gd [1, 6]: 0 µmol
- time within which the chelate forms ([1]; room temperature, Tris pH 7.5): ≤ 5 min
Compound: O=C([O-])CN1CCN(CC(=O)[O-])CCN(CC(=O)O)CCN(CC(=O)[O-])CC1.[Gd+3] [Gd-DOTA, Gd-(1,4,7,10-tetraazacyclododecane-1,4,7,10-tetraacetic acid), reference compound]
- stability to autoclaving [2]: stable to autoclaving

Compound: O=C([O-])C(NCCNC(C(=O)[O-])c1ccccc1[O-])c1ccccc1[O-].[Fe+3] (stereo not drawn) [FE-EHPG]
- uptake into liver [3]: 6 % of an administered dose

- GFR [4]: 4.8 mL/min/kg
- serum concentration ([4]; 5 min): 124.4 µg/mL
- serum iodine signal ([4]; 5 min): 5166.1 dpm/ul
- serum concentration ([4]; 10 min): 109.4 µg/mL
- serum iodine signal ([4]; 10 min): 4541.7 dpm/ul
- serum concentration ([4]; 15 min): 86.6 µg/mL
- serum iodine signal ([4]; 15 min): 3595.7 dpm/ul
- serum concentration ([4]; 20 min): 88.85 µg/mL
- serum iodine signal ([4]; 20 min): 3689.4 dpm/ul
- serum concentration ([4]; 30 min): 67.69 µg/mL
- serum iodine signal ([4]; 30 min): 2810.5 dpm/ul
- serum concentration ([4]; 45 min): 47.02 µg/mL
- serum iodine signal ([4]; 45 min): 1952.3 dpm/ul
- serum concentration ([4]; 60 min): 48.94 µg/mL
- serum iodine signal ([4]; 60 min): 2032.3 dpm/ul
- serum concentration ([4]; 96 min): 31.74 µg/mL
- serum iodine signal ([4]; 96 min): 1317.8 dpm/ul
- serum concentration ([4]; 120 min): 23.65 µg/mL
- serum iodine signal ([4]; 120 min): 982.0 dpm/ul
Compound: CC(=O)N(CC(O)CO)c1c(I)c(C(=O)NCC(O)CO)c(I)c(C(=O)NCC(O)CO)c1I (stereo not drawn) [Iohexol]
